According to patent publication EP0676203A1, “Pharmaceutical compositions of antiglucocorticoid compounds for treating or preventing symptoms of spontaneous or narcotic-induced withdrawal” (ROUSSEL UCLAF, priority 1994, dated 1995):
“And” between values parts separate entries of the source, which are not always exact repeats. Equal values may be shown once.

Assays:
[1] = test system: souris dépendantes à la morphine; experiment: Naloxone-precipitated withdrawal syndrome (jumping) in morphine-treated mice, repeated 4-day oral treatment; type: in vivo
Text: (§1) Les expériences ont été réalisées chez des souris mâles Swiss normales ou surrénalectomisées (Charles River, France) d'un poids corporel compris entre 20 et 25 g. Durant les essais, les animaux ont eu libre accès à la nourriture et à l'eau de boisson. Le nombre d'animaux par groupe est de 10 à 13 souris.
(§2) Les antiglucocorticoïdes : • AG1 (17β-hydroxy 11β-(4-diméthylaminophényl) 17α-(prop-1-ynyl) estra 4,9-dièn-3-one), • AG2 (17β-hydroxy 10β-[(4-méthylphényl) méthyl] 17α-(prop-1-ynyl) estra 4,9-dièn-3-one), • AG3 (γ-lactone de l'acide 17β-hydroxy 11β-(4-diméthylaminophényl) 21-méthylène 3-oxo 19-nor 17α-(pregna 4,9-dièn-21-carboxylique) • AG4 10β-benzyl 17β-hydroxy 17α-(prop-1-ynyl) estra 4,9(11)-dièn-3-one • AG5 11β-[4-(diméthylamino) phényl] 17α-hydroxy 17β-(3-hydroxypropyl) 13α-méthyl gona-4,9-dièn-3-one (onapristone) • AG6 11β-[4-(diméthylamino) phényl] 17β-hydroxy 17α-(3-hydroxy-1-propényl) estra-4,9-dièn-3-one (lilopristone) • AG7 17α-acétoxy 11β-[4-(diméthylamino) phényl] 19-nor pregna 4,9-dièn-3,20-dione • et l'antiprogestérone AP1 (17R 11β-[4-(méthylthio) phényl] spiro (estra-4,9-dièn-17,2'(5'H) furan) 3-one décrit dans WO 87/05908 ex. 3) ont été mis en suspension dans de la méthyl cellusose à 0,5 % et administrés par voie orale (p.o). La morphine a été mise en solution dans du sérum physiologique et administrée par voie sous-cutanée (s.c). Enfin, le chlorhydrate de naloxone a été solubilisé dans de l'eau distillée et injecté par voie intra-péritonéale.
Tous les produits ont été administrées à l'animal sous un volume de 25 ml/kg.
Le premier jour (J1), les animaux ont reçu 5 injections sous-cutanées avec des doses croissantes de morphine réparties dans la matinée et sur le début de l'après midi, à une heure d'intervalle. Les 3 jours suivants (J2, J3, J4), ces mêmes animaux ont été traités le matin par deux administrations de la dose maximale utilisée au jour 1.
Les antiglucocorticoïdes AG1, AG2, AG3, AG4 et AG5 ont été administrées à la dose de 100 mg/kg par voie orale sous forme d'un traitement quotidient effectué 2 heures avant l'administration de morphine et ceci durant 4 jours.
La technique utilisée s'inspire de celle décrite par Way et al. J. Pharmacol. Exp. Ther. (1969), 167 : 1-8 et Huidobro et Maggiolo Acta Physiol. Pharmacol. Latinoam. (1961), 11 : 201-9. Ainsi, l'administration réitérée d'un morphinique induit un phénomène de dépendance physique qui peut être facilement mis en évidence par la précipitation d'un syndrome de sevrage à l'aide d'un antagoniste opiacé tel que la naloxone. Ce syndrome se manifeste, chez la souris sous la forme d'un comportement stéréotypé caractérisé par l'apparition de sauts répétitifs dont le nombre est en relation avec la durée et l'intensité du traitement par le morphinique.
Le sevrage des animaux a été réalisé le quatrième jour; trois heures après le dernier traitement, à l'aide de chlorhydrate de naloxone injecté par voie intrapéritonéale à la dose de 100 mg/kg. Immédiatement après cette injection, les animaux ont été placés individuellement dans des cylindres en plexiglass (hauteur = 40 cm, diamètre = 20 cm). Le nombre de sauts consécutifs au sevrage et effectués par chaque animal a été compté durant une période de 10 minutes.
Les résultats qui figurent dans les tableaux représentent les moyennes des valeurs individuelles assorties de l'erreur standard à la moyenne (m ± esm).

[2] = test system: souris dépendantes à la morphine; experiment: Naloxone-precipitated withdrawal syndrome (jumping) in morphine-treated mice, acute oral treatment 24 h before withdrawal; type: in vivo; conditions: result in words; 100 mg/kg p.o single dose 24 h before naloxone
Text: as §1
as §2, with “Enfin, le chlorhydrate de naloxone a été solubilisé dans de l'eau distillée et injecté par voie intra-péritonéale.” left out

[3] = Morphine 799 mg/kg s.c (cumulated over 4 days) + compound 4 x 100 mg/kg p.o, naloxone 100 mg/kg ip, normal mice
[4] = compound alone, 4 x 100 mg/kg p.o, no morphine, naloxone 100 mg/kg ip on day 4, normal mice

SMILES | Nombre de sauts/10 minutes (m ± esm) [1, 3] [sauts/10 minutes] | Nombre de sauts/10 minutes (m ± esm) [1, 4] [sauts/10 minutes] | effet sur le syndrome de sevrage morphinique [2] | Nombre de sauts/10 minutes (m ± esm) ([1]; in vivo)
CC#C[C@]1(O)CC[C@H]2[C@@H]3CCC4=CC(=O)CCC4=C3[C@@H](c3ccc(N(C)C)cc3)C[C@@]21C [AG1, 17β-hydroxy 11β-(4-diméthylaminophényl) 17α-(prop-1-ynyl) estra 4,9-dièn-3-one] | 68 ± 12 | 0 | – | –
CC#CC1(O)CCC2C3CCC4=CC(=O)CCC4(Cc4ccc(C)cc4)C3=CCC21C (stereo not drawn) [AG2, 17β-hydroxy 10β-[(4-méthylphényl)méthyl] 17α-(prop-1-ynyl) estra 4,9-dièn-3-one] | 79 ± 9 | 0 | inactive | –
C=C1C[C@@]2(CC[C@H]3[C@@H]4CCC5=CC(=O)CCC5=C4[C@@H](c4ccc(N(C)C)cc4)C[C@@]32C)OC1=O [AG3] | 66 ± 7 | 3 ± 2 | – | –
CC#CC1(O)CCC2C3CCC4=CC(=O)CCC4(Cc4ccccc4)C3=CCC21C (stereo not drawn) [AG4, 10β-benzyl 17β-hydroxy 17α-(prop-1-ynyl) estra 4,9(11)-dièn-3-one] | 72 ± 7 | 1 ± 1 | – | –
CN(C)c1ccc([C@H]2C[C@]3(C)[C@@H](CC[C@]3(O)CCCO)[C@@H]3CCC4=CC(=O)CCC4=C32)cc1 [AG5, 11β-[4-(diméthylamino)phényl] 17α-hydroxy 17β-(3-hydroxypropyl) 13α-méthyl gona-4,9-dièn-3-one] | 68 ± 12 | 1 ± 1 | – | –
CSc1ccc([C@H]2C[C@@]3(C)[C@@H](CC[C@@]34C=CCO4)[C@@H]3CCC4=CC(=O)CCC4=C32)cc1 [AP1, 17R 11β-[4-(méthylthio)phényl] spiro (estra-4,9-dièn-17,2'(5'H)furan) 3-one, reference compound] | – | – | n'a pas modifié de façon significative | –
CN1CC[C@]23c4c5ccc(O)c4O[C@H]2[C@@H](O)C=C[C@H]3[C@H]1C5 [Morphine, morphine, reference compound] | – | – | – | 115 ± 21 sauts/10 minutes and 97 ± 13 sauts/10 minutes and 117 ± 14 sauts/10 minutes and 103 ± 10 sauts/10 minutes
